Source: PubChem BioAssay (NCI)
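All cell lines were grown in 96-well plates and treated with compound for 48 hours. GI50 = concentration required for 50% inhibition of growth. The concentration for full growth arrest is given as TGI.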

Columns and labels:
Experiment in all cases: DTP human tumour cell line panel, 48 h
786-0 renal = tested on: 786-0 renal
A498 renal = tested on: A498 renal
A549 NSCLC = tested on: A549 NSCLC
ACHN renal = tested on: ACHN renal
CAKI-1 renal = tested on: CAKI-1 renal
CCRF-CEM leukemia = tested on: CCRF-CEM leukemia
COLO 205 colon = tested on: COLO 205 colon
DU-145 prostate = tested on: DU-145 prostate
EKVX NSCLC = tested on: EKVX NSCLC
HCC-2998 colon = tested on: HCC-2998 colon
HCT-116 colon = tested on: HCT-116 colon
HCT-15 colon = tested on: HCT-15 colon
HL-60(TB) leukemia = tested on: HL-60(TB) leukemia
HOP-62 NSCLC = tested on: HOP-62 NSCLC
HOP-92 NSCLC = tested on: HOP-92 NSCLC
HT29 colon = tested on: HT29 colon
IGROV1 ovarian = tested on: IGROV1 ovarian
K-562 leukemia = tested on: K-562 leukemia
KM12 colon = tested on: KM12 colon
LOX IMVI melanoma = tested on: LOX IMVI melanoma
M14 melanoma = tested on: M14 melanoma
MALME-3M melanoma = tested on: MALME-3M melanoma
MDA-MB-231 breast = tested on: MDA-MB-231 breast
MDA-MB-435 = tested on: MDA-MB-435
MDA-N = tested on: MDA-N
MOLT-4 leukemia = tested on: MOLT-4 leukemia
NCI-H226 lung = tested on: NCI-H226 lung
NCI-H23 lung = tested on: NCI-H23 lung
NCI-H460 lung = tested on: NCI-H460 lung
NCI-H522 lung = tested on: NCI-H522 lung
NCI/ADR-RES ovarian = tested on: NCI/ADR-RES ovarian
OVCAR-3 ovarian = tested on: OVCAR-3 ovarian
OVCAR-4 ovarian = tested on: OVCAR-4 ovarian
OVCAR-5 ovarian = tested on: OVCAR-5 ovarian
OVCAR-8 ovarian = tested on: OVCAR-8 ovarian
PC-3 prostate = tested on: PC-3 prostate
RXF 393 renal = tested on: RXF 393 renal
SF-268 CNS = tested on: SF-268 CNS
SF-295 CNS = tested on: SF-295 CNS
SF-539 CNS = tested on: SF-539 CNS
SK-MEL-2 melanoma = tested on: SK-MEL-2 melanoma
SK-MEL-28 melanoma = tested on: SK-MEL-28 melanoma
SK-MEL-5 melanoma = tested on: SK-MEL-5 melanoma
SK-OV-3 ovarian = tested on: SK-OV-3 ovarian
SN12C renal = tested on: SN12C renal
SNB-19 CNS = tested on: SNB-19 CNS
SNB-75 CNS = tested on: SNB-75 CNS
SR leukemia = tested on: SR leukemia
SW-620 colon = tested on: SW-620 colon
T-47D breast = tested on: T-47D breast
U251 CNS = tested on: U251 CNS
UACC-257 melanoma = tested on: UACC-257 melanoma
UACC-62 melanoma = tested on: UACC-62 melanoma
UO-31 renal = tested on: UO-31 renal
BT-549 breast = tested on: BT-549 breast
HS 578T breast = tested on: HS 578T breast
MCF7 breast = tested on: MCF7 breast
RPMI-8226 leukemia = tested on: RPMI-8226 leukemia
TK-10 renal = tested on: TK-10 renal

O=C(/C=C/c1ccc(O)cc1)c1ccc2c(c1)OCO2
TGI (786-0 renal): 57.7 µM
TGI (A498 renal): 38.4 µM
TGI (A549 NSCLC): 44.8 µM
TGI (ACHN renal): 52.8 µM
TGI (CAKI-1 renal): 35.3 µM
TGI (CCRF-CEM leukemia): 5.69 µM
TGI (COLO 205 colon): 32 µM
TGI (DU-145 prostate): 76.7 µM
TGI (EKVX NSCLC): > 100 µM
TGI (HCC-2998 colon): 40.5 µM
TGI (HCT-116 colon): 25.4 µM
TGI (HCT-15 colon): 83.8 µM
TGI (HL-60(TB) leukemia): 41.3 µM
TGI (HOP-62 NSCLC): 38.5 µM
TGI (HOP-92 NSCLC): 58.8 µM
TGI (HT29 colon): 33.7 µM
TGI (IGROV1 ovarian): 28.9 µM
TGI (K-562 leukemia): 81.5 µM
TGI (KM12 colon): 33.7 µM
TGI (LOX IMVI melanoma): 47 µM
TGI (M14 melanoma): 51.9 µM
TGI (MALME-3M melanoma): > 100 µM
TGI (MDA-MB-231 breast): 37.4 µM
TGI (MDA-MB-435): 69.5 µM
TGI (MDA-N): 86.1 µM
TGI (MOLT-4 leukemia): 52.3 µM
TGI (NCI-H226 lung): 34.1 µM
TGI (NCI-H23 lung): 39.2 µM
TGI (NCI-H460 lung): 77.2 µM
TGI (NCI-H522 lung): 34.2 µM
TGI (NCI/ADR-RES ovarian): 67.9 µM
TGI (OVCAR-3 ovarian): 41 µM
TGI (OVCAR-4 ovarian): 48 µM
TGI (OVCAR-5 ovarian): 93 µM
TGI (OVCAR-8 ovarian): 29.6 µM
TGI (PC-3 prostate): 62.2 µM
TGI (RXF 393 renal): 38.7 µM
TGI (SF-268 CNS): 58.5 µM
TGI (SF-295 CNS): 55.5 µM
TGI (SF-539 CNS): 26.8 µM
TGI (SK-MEL-2 melanoma): 62.4 µM
TGI (SK-MEL-28 melanoma): 42.3 µM
TGI (SK-MEL-5 melanoma): 29.4 µM
TGI (SK-OV-3 ovarian): 82.6 µM
TGI (SN12C renal): 30.7 µM
TGI (SNB-19 CNS): 36.3 µM
TGI (SNB-75 CNS): 50.3 µM
TGI (SR leukemia): 33.6 µM
TGI (SW-620 colon): 42.9 µM
TGI (T-47D breast): 75.3 µM
TGI (U251 CNS): 36.2 µM
TGI (UACC-257 melanoma): 33.6 µM
TGI (UACC-62 melanoma): 47.6 µM
TGI (UO-31 renal): 38.8 µM

COC(=O)CCc1c[nH]c2ccc(N(CCCl)CCCl)cc12
GI50 (786-0 renal): 0.856 µM
TGI (786-0 renal): > 20.7 µM
GI50 (A498 renal): 3.4 µM
TGI (A498 renal): 18.2 µM
GI50 (A549 NSCLC): 1.51 µM
TGI (A549 NSCLC): > 100 µM
GI50 (ACHN renal): 0.383 µM
GI50 (BT-549 breast): 8.52 µM
TGI (BT-549 breast): 41.5 µM
GI50 (CAKI-1 renal): 0.375 µM
TGI (CAKI-1 renal): > 28.4 µM
GI50 (CCRF-CEM leukemia): 0.6 µM
TGI (CCRF-CEM leukemia): > 28.6 µM
GI50 (COLO 205 colon): 3.5 µM
TGI (COLO 205 colon): 19.4 µM
GI50 (DU-145 prostate): 2.27 µM
TGI (DU-145 prostate): > 100 µM
GI50 (EKVX NSCLC): 21.8 µM
TGI (EKVX NSCLC): > 77.7 µM
GI50 (HCC-2998 colon): 8.33 µM
TGI (HCC-2998 colon): 27.1 µM
GI50 (HCT-116 colon): 2.18 µM
TGI (HCT-116 colon): > 58.9 µM
GI50 (HCT-15 colon): 3.16 µM
TGI (HCT-15 colon): > 59.3 µM
GI50 (HL-60(TB) leukemia): 0.429 µM
TGI (HL-60(TB) leukemia): > 100 µM
GI50 (HOP-62 NSCLC): 1.04 µM
TGI (HOP-62 NSCLC): 16.5 µM
GI50 (HOP-92 NSCLC): 2.24 µM
TGI (HOP-92 NSCLC): 28.6 µM
GI50 (HS 578T breast): 15.1 µM
TGI (HS 578T breast): 50.1 µM
GI50 (HT29 colon): 2.3 µM
TGI (HT29 colon): 44.7 µM
GI50 (IGROV1 ovarian): 6.45 µM
TGI (IGROV1 ovarian): > 57.7 µM
GI50 (K-562 leukemia): 9.68 µM
TGI (K-562 leukemia): > 100 µM
GI50 (KM12 colon): 10.6 µM
TGI (KM12 colon): 36.1 µM
GI50 (LOX IMVI melanoma): 1.39 µM
TGI (LOX IMVI melanoma): > 36.2 µM
GI50 (M14 melanoma): 1.73 µM
TGI (M14 melanoma): 11.5 µM
GI50 (MALME-3M melanoma): 5.95 µM
TGI (MALME-3M melanoma): 30.1 µM
GI50 (MCF7 breast): 0.572 µM
TGI (MCF7 breast): 22.9 µM
GI50 (MDA-MB-231 breast): 20.1 µM
TGI (MDA-MB-231 breast): > 92.4 µM
GI50 (MDA-MB-435): 8.98 µM
TGI (MDA-MB-435): 25.9 µM
GI50 (MOLT-4 leukemia): 0.826 µM
TGI (MOLT-4 leukemia): > 100 µM
GI50 (NCI-H226 lung): 1.53 µM
TGI (NCI-H226 lung): 41 µM
GI50 (NCI-H23 lung): 1.25 µM
TGI (NCI-H23 lung): 39.7 µM
GI50 (NCI-H460 lung): 0.322 µM
TGI (NCI-H460 lung): 12.9 µM
GI50 (NCI-H522 lung): 1.79 µM
TGI (NCI-H522 lung): 6.02 µM
GI50 (NCI/ADR-RES ovarian): 2.3 µM
TGI (NCI/ADR-RES ovarian): > 56.8 µM
GI50 (OVCAR-3 ovarian): 8.05 µM
TGI (OVCAR-3 ovarian): 49.6 µM
GI50 (OVCAR-4 ovarian): 7.71 µM
TGI (OVCAR-4 ovarian): 52.2 µM
GI50 (OVCAR-5 ovarian): 5.32 µM
TGI (OVCAR-5 ovarian): 46.1 µM
GI50 (OVCAR-8 ovarian): 3.05 µM
TGI (OVCAR-8 ovarian): > 60.5 µM
GI50 (PC-3 prostate): 8.65 µM
TGI (PC-3 prostate): > 73.4 µM
GI50 (RPMI-8226 leukemia): 3.05 µM
TGI (RPMI-8226 leukemia): > 55.9 µM
GI50 (RXF 393 renal): 1.64 µM
TGI (RXF 393 renal): 4.19 µM
GI50 (SF-268 CNS): 1.25 µM
TGI (SF-268 CNS): 30 µM
GI50 (SF-295 CNS): 0.826 µM
TGI (SF-295 CNS): > 58.8 µM
GI50 (SF-539 CNS): 0.486 µM
TGI (SF-539 CNS): 4.69 µM
GI50 (SK-MEL-2 melanoma): 9.71 µM
TGI (SK-MEL-2 melanoma): 59 µM
GI50 (SK-MEL-28 melanoma): 10.5 µM
TGI (SK-MEL-28 melanoma): 33.6 µM
GI50 (SK-MEL-5 melanoma): 2.39 µM
TGI (SK-MEL-5 melanoma): 14.8 µM
GI50 (SK-OV-3 ovarian): 1.93 µM
TGI (SK-OV-3 ovarian): 33.5 µM
GI50 (SN12C renal): 0.688 µM
TGI (SN12C renal): 36.4 µM
GI50 (SNB-19 CNS): 3.43 µM
TGI (SNB-19 CNS): > 76.2 µM
GI50 (SNB-75 CNS): 1.04 µM
TGI (SNB-75 CNS): 11.6 µM
GI50 (SR leukemia): 0.416 µM
TGI (SR leukemia): > 100 µM
GI50 (SW-620 colon): 3.41 µM
TGI (SW-620 colon): 37 µM
GI50 (T-47D breast): 1.16 µM
TGI (T-47D breast): 16.4 µM
GI50 (TK-10 renal): 4.82 µM
TGI (TK-10 renal): 66 µM
GI50 (U251 CNS): 1.31 µM
TGI (U251 CNS): 25.1 µM
GI50 (UACC-257 melanoma): 5.21 µM
TGI (UACC-257 melanoma): 34.3 µM
GI50 (UACC-62 melanoma): 1.72 µM
TGI (UACC-62 melanoma): 16.6 µM
GI50 (UO-31 renal): 4.81 µM
TGI (UO-31 renal): > 42.6 µM
